# Like-named read-outs stand apart in the source and are kept apart here.
# Columns and labels:
# [1] = Local toxicity, subcutaneous osmotic pumps in nude mice; format: in vivo; settings: subcutaneous osmotic pump loaded with 0.25 mg, 7 days
# Experimental: Control mice were treated with the solvent. 3-6 animals were treated in each group.
# The first set of experiments was carried out to investigate possible local and systemic toxic effects of podophyllotoxin, deoxypodophyllotoxin and picropodophyllin on nude mice. In the first experiment osmotic pumps loaded with either drug-free solvent, podophyllotoxin (0.25 mg), deoxypodophyllotoxin (0.25 mg) or picropodophyllin (0.25 mg) were implanted subcutaneously in the flank region. The drugs are delivered subcutaneously with a constant flow of 0.6 μl/h over 7 days. The volume of the pumps was 100 μl. After 7 days the mice were killed and the skin and subcutaneous tissue adjacent to the outlet of the pumps were analyzed and scored for tissue reactions by an experienced pathologist. There were 3 mice in each group.
# [2] = Systemic toxicity, daily intraperitoneal injection in nude mice; settings: for Signs of disease: up to 5 days
# Experimental: Four to five-week old pathogen-free nude mice (nu/nu) were used and housed within plastic isolators in a sterile facility. […] Experimental treatments with podophyllotoxin, deoxypodophyllotoxin or picropodophyllin were performed by daily intraperitoneal injections of the compound in 100 μl volume of solvent, composed of a mixture of DMSO and physiological saline (8:2). Control mice were treated with the solvent. 3-6 animals were treated in each group. Animals were monitored three times a week for signs of disease and tumor growth. Tumor mass was estimated using the formula (d^2×D)/2, where d and D represent the small and large diameters of the tumor, respectively. The mice were carefully observed for presence of side effects and were sacrificed at the end of the experiments for histological analysis of the lesions. All experiments were performed according to the ethical guidelines for laboratory animal use, provided by institutional ethical committee.
# In the next experiment we analyzed systemic effects of the drugs by injecting 100 μl intraperitoneally of each compound daily over 5 days. Two doses were injected (7 or 28 mg/kg/d) and 3-6 mice were used for each drug and dose. The mice were checked carefully daily for signs of discomfort, diseases and weight loss.
# IGF-1R = IGF-1R (Homo sapiens, UniProt P08069); assay: Tyrosine phosphorylation of IGF-1R in intact FM55 melanoma cells; format: cell-based; design: endogenous in cells; settings: for Level of IGF-1R phosphorylation in intact cells: FM55 melanoma cells, 1 h, means of 3 experiments
# Chain of IGF-1R (P08069 31-1367): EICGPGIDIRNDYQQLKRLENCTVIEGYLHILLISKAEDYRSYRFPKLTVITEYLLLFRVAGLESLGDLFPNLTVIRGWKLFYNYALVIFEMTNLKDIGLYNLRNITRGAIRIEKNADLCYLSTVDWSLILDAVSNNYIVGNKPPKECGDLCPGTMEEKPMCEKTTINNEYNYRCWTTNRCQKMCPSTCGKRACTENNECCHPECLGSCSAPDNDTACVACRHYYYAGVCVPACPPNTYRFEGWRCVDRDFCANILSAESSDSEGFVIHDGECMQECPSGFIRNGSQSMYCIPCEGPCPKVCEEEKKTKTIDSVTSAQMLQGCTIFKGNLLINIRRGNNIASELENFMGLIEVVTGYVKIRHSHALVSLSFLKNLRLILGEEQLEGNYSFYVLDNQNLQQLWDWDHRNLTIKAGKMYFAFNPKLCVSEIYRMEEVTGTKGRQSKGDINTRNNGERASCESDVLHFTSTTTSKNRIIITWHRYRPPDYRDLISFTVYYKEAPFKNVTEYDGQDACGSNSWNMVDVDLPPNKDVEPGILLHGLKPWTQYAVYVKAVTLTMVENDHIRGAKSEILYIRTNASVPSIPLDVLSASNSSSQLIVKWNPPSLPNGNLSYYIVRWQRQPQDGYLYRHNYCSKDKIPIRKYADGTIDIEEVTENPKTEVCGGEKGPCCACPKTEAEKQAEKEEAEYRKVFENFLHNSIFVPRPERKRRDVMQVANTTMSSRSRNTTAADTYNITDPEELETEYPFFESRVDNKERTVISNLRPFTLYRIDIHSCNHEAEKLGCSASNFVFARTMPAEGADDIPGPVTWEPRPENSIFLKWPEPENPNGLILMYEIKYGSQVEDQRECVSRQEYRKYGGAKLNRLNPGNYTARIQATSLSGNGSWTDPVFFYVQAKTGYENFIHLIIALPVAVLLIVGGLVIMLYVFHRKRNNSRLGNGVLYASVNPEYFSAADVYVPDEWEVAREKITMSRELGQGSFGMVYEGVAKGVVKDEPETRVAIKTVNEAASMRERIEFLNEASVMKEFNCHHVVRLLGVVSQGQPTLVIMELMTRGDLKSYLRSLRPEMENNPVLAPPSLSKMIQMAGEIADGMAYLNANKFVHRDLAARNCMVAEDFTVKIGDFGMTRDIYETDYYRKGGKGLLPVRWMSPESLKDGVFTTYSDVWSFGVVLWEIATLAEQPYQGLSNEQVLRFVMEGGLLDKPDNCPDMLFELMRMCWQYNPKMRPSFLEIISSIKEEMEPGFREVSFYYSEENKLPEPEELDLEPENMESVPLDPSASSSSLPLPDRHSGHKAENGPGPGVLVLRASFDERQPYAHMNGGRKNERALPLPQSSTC
# Experimental: Cells were cultured to subconfluency in 6-cm plates, and then fresh medium containing 10% FBS and the desired compounds were added for 1 h. The cells were then lyzed and subjected to immunoprecipitation using specific antibodies. Immunoprecipitates were resolved by sodium dodecyl sulphate polyacrylamide gel electrophoresis (SDS-PAGE) and transferred to nitro-cellulose membranes and incubated with anti-phosphotyrosine antibody. Antibodies to actin (in cell extract) or IGF-1R beta subunit were used as loading controls. After detection the films were scanned for quantification.
# The isolated cells were then lyzed in 10 ml ice-cold PBSTDS containing protease inhibitors (Carlberg, M., et al., J Biol Chem 271:17453-17462, 1996). 50 μl protein A or G agarose was added in 1 ml sample and incubated for 15 min at 4° C. on an orbital shaker. After centrifugation for 10 min at 10,000 r/min at 4° C. the supernatant was saved. The protein content was determined by a dye-binding assay with a reagent purchased from Bio-Rad. Bovine serum albumin was used as a standard. 15 μl Protein G Plus agarose and 5 μl anti-IGF-1R were added. After a 3 h incubation at 4° C. on an orbital shaker the precipitate was collected by pulse centrifugation in a micro centrifuge at 14,000×g for 10 s. The supernatant was discarded and the pellet was washed 3 times with PBSTDS.
# Protein samples were solved in a 2×-sample buffer containing Laemmli buffer and 0.5% […] and boiled for 5 min at 96° C. Samples were separated by SDS-PAGE with a 4% stacking gel and 7.5% separation gel. Molecular weight markers (Bio Rad, Sweden) were run simultaneously in all experiments.
# Following SDS-PAGE the proteins were transferred overnight to nitro-cellulose membranes (Hybond, Amersham, UK) and then blocked for 1 h at room temperature in a solution of 4% skimmed milk powder and 0.02% Tween 20 in PBS, pH 7.5. Incubations with the primary antibodies were performed for 1 h at room temperature, followed by 3 washes with PBS with Tween and incubation with the second antibody for 1 h room temperature. After another 3 washes the membranes were incubated with Streptavidin-labelled horseradish peroxidase for 30 min and then detected using Amersham ECL system (Amersham, UK). The films were scanned by Fluor-S (BioRad).
# FM55 melanoma cells were seeded in 6-cm dishes, at a concentration of 10,000 cells/cm^2 in Minimal Essential Medium supplemented with 10% fetal calf serum (FCS). When the cells reached a density of 65,000 cells/cm^2 in the dishes, they were treated for 1 h with 0.05 μM podophyllotoxin, deoxypodophyllotoxin, picropodophyllin, deoxypicropodophyllin, 4′-demethyl-7-(4,6-O-ethylidene-β-D-glucopyranosyl)epipodophyllotoxin (etoposide) and podophyllotoxin-4,6-O-benzylidene-β-D-glucopyranoside (pf-4,6-O). Etoposide and pf-4,6-O were also administered at 15 μM. The cells were then harvested for assay and quantification of IGF-1R phosphorylation as described in Experiment 1. The values shown in Table 1 represent means of 3 experiments.
# FM55 melanoma cells were cultured in the same way as described in Experiment 1. When reaching a density of 65,000 cells/cm^2 in the dishes, they were treated for 1 h with 0 (control) and 0.05 μM of picropodophyllin and podophyllotoxin, respectively. The cells were then isolated and subjected to immunoprecipitation of the IGF-1R, fibroblast growth factor receptor (FGFR), platelet-derived growth factor receptor (PDGFR), epidermal growth factor receptor (EGFR), insulin receptor (IR) and insulin substrate-1 (IRS-1) using antibodies to respective molecules. IRS-1 is a substrate of IGF-1R, and therefore its phosphorylation is dependent on phosphorylated IGF-1R. Gelelectrophoresis, Western blotting and quantification of the different signals were performed as described above.
# [3] = test system: K562/S chronic myeloid leukemia cells; assay: Leukemia cell viability, K562/S; format: cell-based, human; settings: 72 h
# Experimental: (§1) The human chronic myeloid leukemia K562/S and K562/Vcr30 lines and the acute myeloid leukemia cell lines HL60/0 and HL60/Nov were obtained from ATCC. The K562/S and […] are wild type (non-resistant) cells, whereas K562/Vcr30 and HL60/Nov are cytostatic-resistant sublines. All leukemia cell lines were cultured in RPMI 1640 medium supplemented with 10% fetal bovine serum and with 2 mM L-glutamine, benzylpenicillin (100 U/ml) and streptomycin (100 μg/ml). The cells were grown in tissue culture flasks maintained at 95% air/5% CO2 atmosphere at 37° C. in a humidified incubator. For the experiments cells were cultured in 60-mm plastic dishes or 96-well plastic plates.
# (§2) Cell proliferation kit II (Roche Inc.) is based on colorimetric change of the yellow tetrazolium salt XTT in orange formazan dye by the respiratory chain of viable cells (Roehm, N W, et al., J Immunol Methods 142:257-265, 1991). Cells seeded at a concentration of 5000/well in 100 μl medium in a 96-well plate were treated with different drugs in the given concentration. After 24 or 48 h the cells were incubated, according to the manufacturer's protocol, with XTT labelling mixture. After 4 h the formazan dye is quantified using a scanning multiwell spectrophotometer with a 495-nm filter. The absorbance is directly correlated with the number of viable cells. The standard absorbance curve was drawn by means of untreated cells seeded at a concentration of from 1000 to 10 000 cells/well with an increasing rate of 1000 cells/well. All standards and experiments were performed in triplicates.
# (§3) Cells of said cell lines were seeded in 96-well plates (25 000 cells/well, medium volume per well was 100 μl), in […] medium supplemented with fetal calf serum. After 24 h picropodophyllin and the derivatives alpha-apopicropodophyllin and beta-apopicropodo-phyllin were added at different concentrations and the cells were incubated for 72 h. Cell viability was then assayed (see above). […] The results are based on 3 different experiments.
# (§4) The leukemia cell lines K562/S, […], HL60/0 and HL60/Nov were cultured in 96-well plates as described in Experiment 7. After 24 h, the cells were treated for 72 h with different concentrations of the anti-cancer agent vincristine, with and without co-incubation with 0.05 μM picropodophyllin. […] Cell viability was then assayed. IC50 values for each inhibitor and cell line are shown below (Table 8). The results are based on 3 different experiments.
# [4] = test system: K562/Vcr30 chronic myeloid leukemia cells; assay: Leukemia cell viability, K562/Vcr30; format: cell-based, human; settings: K562/Vcr30, 72 h
# Experimental: as §1, §2, §3, §4
# [5] = test system: HL60/0 acute myeloid leukemia cells; assay: Leukemia cell viability, HL60/0; format: cell-based, human
# Experimental: as §1, §2, §3, §4
# [6] = test system: HL60/Nov acute myeloid leukemia cells; assay: Leukemia cell viability, HL60/Nov; format: cell-based, human
# Experimental: as §1, §2, §3, §4
# [7] = Homo sapiens, read-out: IC50 for cell viability, vincristine alone
# [8] = read-out: IC50 for cell viability
# [9] = HL60, 72 h, read-out: IC50 for cell viability
# [10] = 72 h, read-out: IC50 for cell viability
compound,measurement,setting,value
"COc1cc([C@@H]2c3cc4c(cc3C[C@H]3COC(=O)[C@@H]32)OCO4)cc(OC)c1OC [Deoxypodophyllotoxin, deoxypodophyllotoxin]",Local tissue reactions,[1],light damages
same,Surviving mice/Investigated mice,"[2]; 7 mg/kg/d i.p., 1 d",3/3
same,Surviving mice/Investigated mice,"[2]; 7 mg/kg/d i.p., 2 d",3/3
same,Surviving mice/Investigated mice,"[2]; 7 mg/kg/d i.p., 3 d",3/3
same,Surviving mice/Investigated mice,"[2]; 7 mg/kg/d i.p., 4 d",3/3
same,Surviving mice/Investigated mice,"[2]; 7 mg/kg/d i.p., 5 d",3/3
same,Surviving mice/Investigated mice,"[2]; 28 mg/kg/d i.p., 1 d",6/6
same,Surviving mice/Investigated mice,"[2]; 28 mg/kg/d i.p., 2 d",4/6
same,Surviving mice/Investigated mice,"[2]; 28 mg/kg/d i.p., 3 d",0/6
same,Signs of disease,[2]; high dose (28 mg/kg/d) i.p. daily,serious disease or death
same,Signs of disease,[2]; low dose (7 mg/kg/d) i.p. daily,serious signs of disease
same,Level of IGF-1R phosphorylation in intact cells,IGF-1R; 0.05 μM,2 % OD
"COc1cc(C2c3cc4c(cc3C(OC3OC5COC(c6ccccc6)OC5C(O)C3O)C3COC(=O)C23)OCO4)cc(OC)c1OC [Pf-4,6-O, podophyllotoxin-4,6-O-benzylidene-β-D-glucopyranoside]",Level of IGF-1R phosphorylation in intact cells,IGF-1R; 0.05 μM,100 % OD
same,Level of IGF-1R phosphorylation in intact cells,IGF-1R; 15 μM,102 % OD
same,Effect on IGF-1R,IGF-1R; stated in description,completely disappeared
"COc1cc([C@@H]2c3cc4c(cc3C[C@H]3COC(=O)[C@H]32)OCO4)cc(OC)c1OC [Deoxypicropodophyllin, deoxypicropodophyllin]",Level of IGF-1R phosphorylation in intact cells,IGF-1R; 0.05 μM,5 % OD
"CC[C@]1(O)C[C@H]2CN(CCc3c([nH]c4ccccc34)[C@@](C(=O)OC)(c3cc4c(cc3OC)N(C=O)[C@H]3[C@@](O)(C(=O)OC)[C@H](OC(C)=O)[C@]5(CC)C=CCN6CC[C@]43[C@@H]65)C2)C1 [Vincristine, vincristine, reference compound]",IC50,[3]; [7],1.6 nM
same,IC50,[4]; [7],5 nM
same,IC50,"[5]; Homo sapiens, HL-60, HL60/0, 72 h, read-out: IC50 for cell viability, vincristine alone",0.8 nM
same,IC50,"[6]; Homo sapiens, HL-60, 72 h, read-out: IC50 for cell viability, vincristine alone",1.2 nM
"COc1cc([C@@H]2c3cc4c(cc3C=C3COC(=O)[C@H]32)OCO4)cc(OC)c1OC [Alpha-apopicro, α-apopicropodophyllin]",IC50,[3]; [8],40 nM
same,IC50,[4]; [8],50 nM
same,IC50,[5]; [9],20 nM
same,IC50,[6]; [10],20 nM
"COc1cc([C@@H]2c3cc4c(cc3[C@@H](O[C@@H]3O[C@@H]5CO[C@@H](C)O[C@H]5[C@H](O)[C@H]3O)[C@H]3COC(=O)[C@H]23)OCO4)cc(OC)c1O [Etoposide, 4′-demethyl-7-(4,6-O-ethylidene-β-D-glucopyranosyl)epipodophyllotoxin]",Level of IGF-1R phosphorylation in intact cells,IGF-1R; 0.05 μM,102 % OD
same,Level of IGF-1R phosphorylation in intact cells,IGF-1R; 15 μM,105 % OD
β-apopicropodophyllin [Beta-apopicro],IC50,[3]; [8],10 nM
same,IC50,[4]; [8],10 nM
same,IC50,[5]; [9],10 nM
same,IC50,[6]; [10],10 nM

# — patent US7662851B2, “Use of specific cyklolignans” (Axelar AB, priority 2001, dated 2010)
